Assay results: publication PMC10650955, “α-Aminophosphonate inhibitors of metallo-β-lactamases NDM-1 and VIM-2” (RSC Medicinal Chemistry, 2023)
Where a name gives a salt, the structure may show the parent alone.

Key:
[1] = biological target: T1, VIM-2 (Escherichia coli, UniProt Q5U7L7); assay: Dose rate inhibition studies for IC50 determination, VIM-2 enzymatic assay; format: biochemical; conditions: Enzyme IC50 VIM-2, 0.1 nM VIM-2, 100 μM ZnCl2, nitrocefin substrate, inhibitor 0-800 μM, 3 parallel measurements; N.I. = no enzyme inhibitory activity observed
T1 construct: made in house
How it was run: (§1)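 Purified enzyme (0.1 nM VIM-2 or 10 nM NDM-1) preincubated 5 min at 25 °C with inhibitor (0-800 μM) in 50 mM HEPES pH 7.2, 100 μM ZnCl2, 2.5% DMSO, 400 μg/mL BSA. Substrate at 100 μM: nitrocefin for VIM-2 (482 nm), imipenem for NDM-1 (300 nm). IC50 from initial velocities, triplicates.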

[2] = biological target: T2, 15N-labelled NDM-1 (Klebsiella pneumoniae, UniProt C7C422); assay: 1H,15N HSQC NMR chemical shift perturbation titration, NDM-1; format: binding
T2 construct: made in house
Experimental: (§2) Solution NMR spectroscopy is a powerful tool to assess protein–ligand interactions under close to physiological conditions.[47] We, therefore, performed NMR chemical shift perturbation (CSP, for details, see section S8, ESI ^†) experiments to identify the amino acid residues of NDM-1 and VIM-2 that are involved in inhibitor binding, making use of the previously published protein assignments.[48,49] Titrations were conducted using ^15N-labelled proteins with 0, 0.5, 1, 2, 4, 8, and 16 equiv. of 5 inhibitors for NDM-1 and of 7 inhibitors for VIM-2.
(§3) For the titrations, ^15N-labelled NDM-1 and ^15N-labelled VIM-2 (250 μM), and titrated ligands (0.5 equiv. in 1 μL) were prepared in the same buffer as the protein (20 mM KPO4, 0.1 mM ZnCl2, pH 7.0 with 10% D2O and 2.5% DMSO-d6). ^1H,^15N HSQC spectra were acquired with 128 × 1024 complex points (F1 × F2) and spectral width of 9090 × 2740 Hz on ^15N-labeled NDM-1/VIM-2 and with every titration step up to 1 : 16 ratio between protein : ligand (0, 0.5, 1, 2, 4, 8, and 16 equiv. of ligand). All experiments were recorded on a Bruker 600 MHz spectrometer at 310 K equipped with a 5 mm TCI cryogenic probe. The NMR data were processed on the MestReNova software with the Mnova Binding plugin. The weighted average chemical shift perturbations (CSP) for the backbone amides were calculated from the observed chemical shift differences in the proton and nitrogen dimensions using the equation (chemical shift scaling factors: FH = 1, FN = 0.156) CSP = Δδ1H,15N = [drawing 13] .
(§4) 7. Chemical shift perturbation histograms
(§5) Chemical shift perturbation was calculated according equation (1) 2
(§6) CSP = Δδ(1H,15N) = √(Δδ1H2 + (1⁄R × Δδ15N2) Rscale = 6.5 (1)
(§7) Where Δδ1H is the chemical shift change for proton dimension, Δδ15N is the chemical shift change for nitrogen dimension, Rscale is a
(§8) The chemical shift perturbations (CSP) were classified as significant (SSP) when the observed Δδ(1H,15N) was greater than the population
(§9) mean plus the standard deviation (µ+1σ) – solid line; (µ+2σ) – dashed line, and (µ+3σ) – dashed line.
(§10) Further on, Kd was calculated according: 3
(§11) ([P]+[L]+Kd)− √([P]+[L]+Kd)2−4[P][L]
(§12) ΔδmaxΔδobs = Δδmax 2[P] (2)
(§13) Where Kd is the dissociation constant, [P] and [L] are protein and ligand concentrations, respectively. Δδmax were estimated in
(§14) MestReNova by extrapolation of the obser ved chemical shift differences Δδobs.

[3] = biological target: T3, 15N-labelled VIM-2 (Escherichia coli, UniProt Q5U7L7); assay: 1H,15N HSQC NMR chemical shift perturbation titration, VIM-2; format: binding; conditions: VIM-2 Kd, 0-16 equiv. ligand, pH 7.0, 310 K
T3 construct: made in house
Experimental: as §2, §3, §4, §5, §6, §7, §8, §9, §10, §11, §12, §13, §14

[4] = biological target: T4, NDM-1 (Klebsiella pneumoniae, UniProt C7C422); assay: Dose rate inhibition studies for IC50 determination, NDM-1 enzymatic assay; format: biochemical; conditions: Enzyme IC50 NDM-1, 10 nM NDM-1, 100 μM ZnCl2, imipenem substrate, inhibitor 0-800 μM, 3 parallel measurements; N.I. = no enzyme inhibitory activity observed
T4 construct: made in house
How it was run: as §1

T2 sequence (C7C422 29-270 limits assumed): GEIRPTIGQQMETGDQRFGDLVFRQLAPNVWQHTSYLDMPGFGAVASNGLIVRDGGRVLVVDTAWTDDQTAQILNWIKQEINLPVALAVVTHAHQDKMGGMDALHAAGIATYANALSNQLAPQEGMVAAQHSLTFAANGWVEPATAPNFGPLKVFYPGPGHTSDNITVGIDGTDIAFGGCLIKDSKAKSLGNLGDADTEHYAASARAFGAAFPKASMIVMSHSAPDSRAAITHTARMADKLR
T4 sequence (C7C422 29-270 limits assumed): as above

O=C(NC(C1CCCCN1)P(=O)(O)O)c1ccsc1 (centres unmarked) [Compound 5c-1, (Piperidin-2-yl(thiophene-3-carboxamido)methyl)phos-phonic acid hydrochloride]
IC50 [1]: 0.033 ± 0.003 mM | Kd ([2]; Estimated binding constant (Kd), residue 070F, Table S5, per-residue fit, NDM-1 070F): 15.2 mM | Kd ([2]; Estimated binding constant (Kd), residue 091T, Table S5, per-residue fit, NDM-1 091T): 4.17 mM | Kd ([2]; Estimated binding constant (Kd), residue 108E, Table S5, per-residue fit, NDM-1 108E): 4.5 mM | Kd ([2]; Estimated binding constant (Kd), residue 119T, Table S5, per-residue fit, NDM-1 119T): 10.7 mM | Kd ([2]; Estimated binding constant (Kd), residue 123Q, Table S5, per-residue fit, NDM-1 123Q): 1.69 mM | Kd ([2]; Estimated binding constant (Kd), residue 124D, Table S5, per-residue fit, NDM-1 124D): 5.76 mM | Kd ([2]; Estimated binding constant (Kd), residue 127G, Table S5, per-residue fit, NDM-1 127G): 10.8 mM | Kd ([2]; Estimated binding constant (Kd), residue 143A, Table S5, per-residue fit, NDM-1 143A): 8.49 mM | Kd ([2]; Estimated binding constant (Kd), residue 149A, Table S5, per-residue fit, NDM-1 149A): 1.76 mM | Kd ([2]; Estimated binding constant (Kd), residue 152E, Table S5, per-residue fit, NDM-1 152E): 3.85 mM | Kd ([2]; Estimated binding constant (Kd), residue 159H, Table S5, per-residue fit, NDM-1 159H): 11.7 mM | Kd ([2]; Estimated binding constant (Kd), residue 160S, Table S5, per-residue fit, NDM-1 160S): 5.4 mM | Kd ([2]; Estimated binding constant (Kd), residue 188G, Table S5, per-residue fit, NDM-1 188G): 15.8 mM | Kd ([2]; Estimated binding constant (Kd), residue 191S, Table S5, per-residue fit, NDM-1 191S): 0.48 mM | Kd ([2]; Estimated binding constant (Kd), residue 194I, Table S5, per-residue fit, NDM-1 194I): 6.26 mM | Kd ([2]; Estimated binding constant (Kd), residue 197G, Table S5, per-residue fit, NDM-1 197G): 1.51 mM | Kd ([2]; Estimated binding constant (Kd), residue 205F, Table S5, per-residue fit, NDM-1 205F): 3.19 mM | Kd ([2]; Estimated binding constant (Kd), residue 206G, Table S5, per-residue fit, NDM-1 206G): 3.95 mM | Kd ([2]; Estimated binding constant (Kd), residue 211K, Table S5, per-residue fit, NDM-1 211K): 10 mM | Kd ([2]; Estimated binding constant (Kd), residue 213S, Table S5, per-residue fit, NDM-1 213S): 9.53 mM | Kd ([2]; Estimated binding constant (Kd), residue 214K, Table S5, per-residue fit, NDM-1 214K): 6.4 mM | Kd ([2]; Estimated binding constant (Kd), residue 217S, Table S5, per-residue fit, NDM-1 217S): 11.8 mM | Kd ([2]; Estimated binding constant (Kd), residue 228H, Table S5, per-residue fit, NDM-1 228H): 17.9 mM | Kd ([2]; Estimated binding constant (Kd), residue 229Y, Table S5, per-residue fit, NDM-1 229Y): 6.74 mM | Kd ([2]; Estimated binding constant (Kd), residue 230A, Table S5, per-residue fit, NDM-1 230A): 11.5 mM | Kd ([2]; Estimated binding constant (Kd), residue 232S, Table S5, per-residue fit, NDM-1 232S): 10.2 mM | Kd ([2]; Estimated binding constant (Kd), residue 248M, Table S5, per-residue fit, NDM-1 248M): 36.6 mM | Kd ([2]; Estimated binding constant (Kd), residue 249S, Table S5, per-residue fit, NDM-1 249S): 4.15 mM | Kd ([2]; Estimated binding constant (Kd), residue 251S, Table S5, per-residue fit, NDM-1 251S): 15.4 mM | Kd ([2]; Estimated binding constant (Kd), residue 254D, Table S5, per-residue fit, NDM-1 254D): 5.56 mM | Kd ([2]; Estimated binding constant (Kd), residue 255S, Table S5, per-residue fit, NDM-1 255S): 10.6 mM | Kd ([2]; NDM-1 Kd, NMR chemical shift perturbation, 0-16 equiv. ligand, pH 7.0, 310 K): 3.1 ± 0.3 mM | Kd [3]: 0.4 ± 0.03 mM | IC50 [4]: 0.219 ± 0.014 mM
